Assay results reported in EP3305781A1, “CHEMICAL SUBSTANCES WHICH INHIBIT THE ENZYMATIC ACTIVITY OF HUMAN KALLIKREIN-RELATED PEPTIDASE 6 (KLK6)” (Deutsches Krebsforschungszentrum, priority 2016, dated 2018).
Where two headings read alike, the source gives them in different places.

What was measured:
Test in all cases: Biochemical inhibition assay, fluorogenic substrate FSR-AMC
KLK6 = KLK6 (Homo sapiens, UniProt Q92876)
Thrombin = Thrombin (Homo sapiens, UniProt P00734)
Trypsin = Trypsin (Homo sapiens, UniProt P07477)
Factor Xa = Factor Xa (Homo sapiens, UniProt P00742)
[1] = read-out: KLK6 IC50, KLK6 5 nM (produced in insect cells), 30 min incubation with inhibitor, FSR-AMC 20 µM, Tris pH 7.5
[2] = read-out: Thrombin IC50, Thrombin 9.8·10^-5 NIH unit/mL, 30 min incubation with inhibitor, FSR-AMC 20 µM, Tris pH 7.5
[3] = read-out: Trypsin IC50, Trypsin 0.88 ng/mL, 30 min incubation with inhibitor, FSR-AMC 20 µM, Tris pH 7.5
[4] = read-out: Factor Xa IC50, Factor Xa 4 nM, 30 min incubation with inhibitor, FSR-AMC 20 µM, Tris pH 7.5

Chain of Factor Xa (P00742 235-488 limits assumed): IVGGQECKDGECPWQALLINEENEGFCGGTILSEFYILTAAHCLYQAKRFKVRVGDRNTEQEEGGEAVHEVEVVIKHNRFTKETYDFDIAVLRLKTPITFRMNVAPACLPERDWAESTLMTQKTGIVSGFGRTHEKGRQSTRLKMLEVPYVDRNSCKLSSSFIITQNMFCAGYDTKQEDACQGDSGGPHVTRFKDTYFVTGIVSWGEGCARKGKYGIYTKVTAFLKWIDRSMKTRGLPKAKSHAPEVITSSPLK
Chain of Factor Xa (P00742 41-179 partner limits assumed): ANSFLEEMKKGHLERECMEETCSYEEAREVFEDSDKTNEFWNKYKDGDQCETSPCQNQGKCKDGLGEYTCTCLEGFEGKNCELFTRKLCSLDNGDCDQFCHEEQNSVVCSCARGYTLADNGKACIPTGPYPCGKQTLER

Row | Structure (SMILES) | IC50 (KLK6; [1]) [µM] | IC50 (Thrombin; [2]) [µM] | IC50 (Trypsin; [3]) [µM] | IC50 (Factor Xa; [4]) [µM] | IC50 (Thrombin) [µM] | IC50 (Trypsin) [µM] | IC50 (Factor Xa) [µM] | IC50 (KLK6) [µM]
1 | Cc1nn(-c2ccccc2)c(C)c1NC(=O)C(C)OC(=O)Cn1c(C)cc2ccccc21 (racemic) [compound 37] | 1.48 | > 50 | > 50 | > 50 | – | – | – | –
2 | Cc1nn(-c2ccccc2)c(C)c1NC(=O)COC(=O)Cn1c(C)cc2ccccc21 [compound 1, 2-((3,5-dimethyl-1-phenyl-1H-pyrazol-4-yl)amino)-2-oxoethyl 2-(2-methyl-H-indol-1-yl)acetate] | – | – | – | – | > 200 | 39.4 | > 200 | –
3 | Cc1nn(C)c(C)c1NC(=O)COC(=O)Cn1c(C)cc2ccccc21 [compound 2, 2-oxo-2-((1,3,5-trimethyl-1H-pyrazol-4-yl)amino)ethyl 2-(2-methyl-1H-indol-1-yl)acetate] | – | – | – | – | > 200 | 71.5 | > 200 | 1.25
4 | Cc1cccc(-n2nc(C)c(NC(=O)COC(=O)Cn3c(C)cc4ccccc43)c2C)c1 [compound 3, 2-((3,5-dimethyl-1-(m-tolyl)-1H-pyrazol-4-yl)amino)-2-oxoethyl 2-(2-methyl-1H-indol-1-yl)acetate] | – | – | – | – | > 200 | 65.7 | > 200 | 0.371
5 | Cc1nn(-c2ccccc2)c(C)c1NC(=O)COC(=O)Cc1c[nH]c2ccccc12 [compound 12, 2-((3,5-dimethyl-1-phenyl-1H-pyrazol-4-yl)amino)-2-oxoethyl 2-(1H-indol-3-yl)acetate] | – | – | – | – | > 200 | 139 | 135 | –
6 | Cc1ccccc1NC(=O)COC(=O)Cn1c(C)cc2ccccc21 [compound 26] | – | > 50 | > 50 | > 50 | – | – | – | –
7 | Cc1nn(-c2ccccc2)c(C)c1NC(=O)COC(=O)Cn1c(C)cc2cc(Cl)ccc21 [compound 30] | – | > 50 | > 50 | > 50 | – | – | – | –
8 | Cc1nn(-c2ccccc2)c(C)c1NC(=O)COC(=O)Cc1c(C)[nH]c2ccccc12 [compound 38] | – | > 50 | 27.4 | > 50 | – | – | – | –
9 | Cc1nn(-c2ccccc2)c(C)c1NC(=O)C1(OC(=O)Cn2c(C)cc3ccccc32)CC1 [compound 40] | – | > 50 | > 50 | > 50 | – | – | – | –
10 | Cc1nn(-c2ccccc2)c(C)c1NC(=O)COC(=O)Cc1cccc2ccccc12 [compound 42] | – | > 50 | > 50 | – | – | – | – | –
11 | Cc1nn(-c2ccccc2)c(C)c1NC(=O)COC(=O)Cc1ccccc1 [compound 43] | – | > 50 | > 50 | – | – | – | – | –
12 | Cc1nn(-c2ccccc2)c(C)c1NC(=O)COC(=O)Cc1ccc(N)cc1 [compound 44] | 12.2 | > 50 | > 50 | – | – | – | – | –
13 | Cc1nn(-c2ccccc2)c(C)c1NC(=O)COC(=O)Cc1ccccc1Cl [compound 45] | 1.36 | > 50 | > 50 | – | – | – | – | –
14 | Cc1nn(-c2ccccc2)c(C)c1NC(=O)COC(=O)Cc1ccc(C#N)cc1 [compound 46] | 29.4 | > 50 | > 50 | – | – | – | – | –
15 | Cc1nn(-c2ccccc2)c(C)c1NC(=O)COC(=O)Cc1ccccc1Br [compound 48] | – | > 200 | > 200 | > 200 | – | – | – | –
16 | Cc1nn(-c2ccccc2)c(C)c1NC(=O)COC(=O)Cc1ccsc1 [compound 70] | – | > 200 | > 200 | > 200 | – | – | – | –
17 | Cc1[nH]c2ccccc2c1CC(=O)OCC(=O)Nc1ccc(N2CCOCC2)cc1 [compound 76] | – | > 200 | > 200 | > 200 | – | – | – | –
18 | Cc1nn(-c2ccccc2)c(C)c1NC(=O)COC(=O)C(C)c1c(C)[nH]c2ccccc12 (stereo not shown) [compound 81] | – | > 200 | > 200 | > 200 | – | – | – | –
19 | Cc1[nH]c2ccccc2c1CC(=O)OCC(=O)Nc1cncnc1 [compound 86] | – | 66.1 | > 200 | 148 | – | – | – | –
20 | Cc1nn(-c2ccccc2)c(C)c1NC(=O)COC(=O)CCc1c(C)[nH]c2ccccc12 [compound 87] | – | > 200 | > 200 | > 200 | – | – | – | –
